Entries after “also recorded” stand apart in the source; their conditions may differ. Structures can show the parent of a compound that is named as a salt.
Test system: healthy volunteers
Experiment: 24 h long-term infusion study, AOP LDLL600 against esmolol: heart rate
Format: in vivo, human
Details: for heart rate: Table 1
Protocol: A single centre prospective, randomized, double blind, crossover, pharmacokinetic, safety and tolerability study to compare long-term infusion administration of AOP LDLL600 against esmolol in healthy volunteers was performed.
Landiolol hydrochloride lyophilized (LDLL600) comprises 600 mg landiolol hydrochloride, 600 mg mannitol, pH 6.5. The primary packing of LDLL600 is 50 ml vial, the reconstitution volume is 50 ml and the final product concentration is 12 mg/mL landiolol HCl.
12 subjects were administered AOP LDLL600 or Esmolol (Brevibloc, 2500 mg/250 ml) in 1:1 ratio in double-blind, randomized, cross-over setting. PK, systemic cardiovascular and local tolerability and safety of the 24 h-long term infusions of three dose levels of both IMPs during each treatment period were assessed.
Landiolol was infused over 24 h in a dose of 10 μg/KG/min (2 hrs), followed by 20 μg/KG/min (2 hrs), followed by 40 μg/KG/min for 20 hrs.
Dosing algorithm was body weight divided by 20, 10 and 5 in ml/h giving 10, 20 and 40 μg/KG/min at a concentration of 12 mg/ml. No severe adverse drug reactions, mild local reactions, 1 severe local reaction (Esmolol High Dose).
Landiolol was infused over 24 h in a dose of 10, 20 and 40 μg/KG/min, i.e. 10 μg/KG/min landiolol were administered for 2 hrs, followed by 2 hrs administration of 20 μg/KG/min and further followed by 20 hrs administration of 40 μg/KG/min.
Post-infusion follow up measurements were performed immediately after 20 hrs administration study, i.e. 2, 4 min etc. after stop of landiolol administration.

[1] = LD infusion (landiolol 10, esmolol 50 μg/kg/min), 3 min
[2] = LD infusion (landiolol 10, esmolol 50 μg/kg/min), 4 min
[3] = LD infusion (landiolol 10, esmolol 50 μg/kg/min), 6 min
[4] = LD infusion (landiolol 10, esmolol 50 μg/kg/min), 8 min
[5] = LD infusion (landiolol 10, esmolol 50 μg/kg/min), 12 min
[6] = LD infusion (landiolol 10, esmolol 50 μg/kg/min), 16 min
[7] = LD infusion (landiolol 10, esmolol 50 μg/kg/min), 20 min
[8] = LD infusion (landiolol 10, esmolol 50 μg/kg/min), 30 min
[9] = LD infusion (landiolol 10, esmolol 50 μg/kg/min), 60 min
[10] = LD infusion (landiolol 10, esmolol 50 μg/kg/min), 90 min
[11] = LD infusion (landiolol 10, esmolol 50 μg/kg/min), 2 h
[12] = MD infusion (landiolol 20, esmolol 100 μg/kg/min, after 2 h LD), 2 min
[13] = MD infusion (landiolol 20, esmolol 100 μg/kg/min, after 2 h LD), 3 min
[14] = MD infusion (landiolol 20, esmolol 100 μg/kg/min, after 2 h LD), 4 min
[15] = MD infusion (landiolol 20, esmolol 100 μg/kg/min, after 2 h LD), 6 min
[16] = MD infusion (landiolol 20, esmolol 100 μg/kg/min, after 2 h LD), 8 min
[17] = MD infusion (landiolol 20, esmolol 100 μg/kg/min, after 2 h LD), 12 min
[18] = MD infusion (landiolol 20, esmolol 100 μg/kg/min, after 2 h LD), 16 min
[19] = MD infusion (landiolol 20, esmolol 100 μg/kg/min, after 2 h LD), 20 min
[20] = MD infusion (landiolol 20, esmolol 100 μg/kg/min, after 2 h LD), 30 min
[21] = MD infusion (landiolol 20, esmolol 100 μg/kg/min, after 2 h LD), 60 min
[22] = MD infusion (landiolol 20, esmolol 100 μg/kg/min, after 2 h LD), 90 min
[23] = MD infusion (landiolol 20, esmolol 100 μg/kg/min, after 2 h LD), 2 h

SMILES: CC1(C)OC[C@@H](COC(=O)CCc2ccc(OC[C@@H](O)CNCCNC(=O)N3CCOCC3)cc2)O1 [Landiolol, (−)-[(S)-2,2-dimethyl-1,3-dioxolan-4-yl]methyl 3-[4-[(S)-2-hydroxy-3-(2-morpholinocarbonylamino)ethylamino]propoxy]phenylpropionate monohydrochloride]
- heart rate, Mean (SD) (LD infusion (landiolol 10, esmolol 50 μg/kg/min), 2 min): 65.6 (5.09) beats per minute
- change of heart rate from predose, Mean (SD) [1]: −2.5 (7.48) beats per minute
- heart rate, Mean (SD) [1]: 64.8 (6.82) beats per minute
- change of heart rate from predose, Mean (SD) [2]: −2.8 (6.38) beats per minute
- heart rate, Mean (SD) [2]: 64.6 (6.97) beats per minute
- change of heart rate from predose, Mean (SD) [3]: −1.7 (7.97) beats per minute
- heart rate, Mean (SD) [3]: 65.7 (8.78) beats per minute
- change of heart rate from predose, Mean (SD) [4]: −3.6 (9.07) beats per minute
- heart rate, Mean (SD) [4]: 63.8 (6.57) beats per minute
- change of heart rate from predose, Mean (SD) [5]: −4.7 (10.99) beats per minute
- heart rate, Mean (SD) [5]: 62.7 (7.71) beats per minute
- change of heart rate from predose, Mean (SD) [6]: −7.1 (5.32) beats per minute
- heart rate, Mean (SD) [6]: 60.3 (6.72) beats per minute
- change of heart rate from predose, Mean (SD) [7]: −7.3 (10.51) beats per minute
- heart rate, Mean (SD) [7]: 60.0 (6.05) beats per minute
- change of heart rate from predose, Mean (SD) [8]: −7.8 (12.55) beats per minute
- heart rate, Mean (SD) [8]: 59.5 (8.55) beats per minute
- change of heart rate from predose, Mean (SD) [9]: −9.6 (11.89) beats per minute
- heart rate, Mean (SD) [9]: 57.8 (8.05) beats per minute
- change of heart rate from predose, Mean (SD) [10]: −9.3 (11.33) beats per minute
- heart rate, Mean (SD) [10]: 58.1 (7.14) beats per minute
- change of heart rate from predose, Mean (SD) [11]: −11.2 (11.75) beats per minute
- heart rate, Mean (SD) [11]: 56.2 (5.89) beats per minute
- change of heart rate from predose, Mean (SD) (MD Predose (end of 2 h LD)): −11.2 (11.75) beats per minute
- heart rate, Mean (SD) (MD Predose (end of 2 h LD)): 56.2 (5.89) beats per minute
- change of heart rate from predose, Mean (SD) [12]: −11.1 (10.73) beats per minute
- heart rate, Mean (SD) [12]: 56.3 (6.48) beats per minute
- change of heart rate from predose, Mean (SD) [13]: −9.8 (7.90) beats per minute
- heart rate, Mean (SD) [13]: 57.6 (5.02) beats per minute
- change of heart rate from predose, Mean (SD) [14]: −10.9 (9.26) beats per minute
- heart rate, Mean (SD) [14]: 56.4 (6.87) beats per minute
- change of heart rate from predose, Mean (SD) [15]: −11.2 (11.10) beats per minute
- heart rate, Mean (SD) [15]: 56.2 (7.86) beats per minute
- change of heart rate from predose, Mean (SD) [16]: −9.7 (10.96) beats per minute
- heart rate, Mean (SD) [16]: 57.7 (7.24) beats per minute
- change of heart rate from predose, Mean (SD) [17]: −12.8 (10.17) beats per minute
- heart rate, Mean (SD) [17]: 54.5 (6.07) beats per minute
- change of heart rate from predose, Mean (SD) [18]: −10.4 (11.42) beats per minute
- heart rate, Mean (SD) [18]: 56.9 (6.88) beats per minute
- change of heart rate from predose, Mean (SD) [19]: −12.8 (10.52) beats per minute
- heart rate, Mean (SD) [19]: 54.5 (6.86) beats per minute
- change of heart rate from predose, Mean (SD) [20]: −9.0 (11.92) beats per minute
- heart rate, Mean (SD) [20]: 58.3 (8.53) beats per minute
- change of heart rate from predose, Mean (SD) [21]: −11.3 (9.86) beats per minute
- heart rate, Mean (SD) [21]: 56.0 (5.17) beats per minute
- change of heart rate from predose, Mean (SD) [22]: −10.2 (10.81) beats per minute
- heart rate, Mean (SD) [22]: 57.2 (6.79) beats per minute
- change of heart rate from predose, Mean (SD) [23]: −11.3 (9.41) beats per minute
- heart rate, Mean (SD) [23]: 56.1 (7.38) beats per minute
- heart rate, Mean (SD) (Predose (before first IMP administration)): 67.3 (8.18) beats per minute
- heart rate (Control (before administration)): 67.8 beats per minute
- heart rate (high dose (landiolol 40, esmolol 200 μg/kg/min), time 720 min): 57.5 beats per minute
- heart rate (high dose (landiolol 40, esmolol 200 μg/kg/min), time 1200 min): 53.6 beats per minute
- heart rate (low dose (landiolol 10, esmolol 50 μg/kg/min), time 12 min): 62.7 beats per minute
- heart rate (low dose (landiolol 10, esmolol 50 μg/kg/min), time 16 min): 60.3 beats per minute
- heart rate (low dose (landiolol 10, esmolol 50 μg/kg/min), time 30 min): 59.5 beats per minute
- heart rate (low dose (landiolol 10, esmolol 50 μg/kg/min), time 60 min): 57.8 beats per minute
- heart rate (low dose (landiolol 10, esmolol 50 μg/kg/min), time 120 min): 56.2 beats per minute
- heart rate (medium dose (landiolol 20, esmolol 100 μg/kg/min), time 240 min): 56.1 beats per minute
- heart rate (time after administration 12 min (end at 1440 min)): 63.5 beats per minute
- heart rate (time after administration 16 min): 67 beats per minute
- heart rate (time after administration 30 min): 70 beats per minute
- heart rate (time after administration 60 min): 69.2 beats per minute
- heart rate (time after administration 120 min): 66.8 beats per minute
- overshoot effect on heart rate (after termination of long term administration, listed as landiolol-hydrochloride, monohydrochloride): avoiding any overshoot effect; also recorded: no significant overshoot effect occurs
- tolerance effect (long term administration): without showing any tolerance effects
- heart rate effect during administration (long term administration, listed as landiolol-hydrochloride, monohydrochloride): persistent reduction of heart rate; also recorded: significantly lower than the heart rate and/or blood pressure values achieved under esmolol long-term treatment

Reference: US10722516B2, “Use of landiolol hydrochloride in the long-term treatment of tachyarrhythmias” (AOP Orphan Pharmaceuticals AG, priority 2013, dated 2020)
